Series [1] deals with Plasma. The series can be described thus: Metabolic stability in mouse plasma assessed as compound remaining at 1 uM after 3 hrs by LC-MS/MS analysis. The format is ADME, cell-free.
The target in series [2] is Neurotensin receptor type 2 (Homo sapiens, UniProt O95665). The series can be described thus: Agonist activity at NTR2 (unknown origin) expressed in human U2OS cells coexpressing beta-arrestin by GFP reporter gene assay. The format is cell-based. Background: Reporter assays use an easily measured gene product as a stand-in for the process of interest.
Neurotensin receptor type 2, sequence (O95665 whole entry): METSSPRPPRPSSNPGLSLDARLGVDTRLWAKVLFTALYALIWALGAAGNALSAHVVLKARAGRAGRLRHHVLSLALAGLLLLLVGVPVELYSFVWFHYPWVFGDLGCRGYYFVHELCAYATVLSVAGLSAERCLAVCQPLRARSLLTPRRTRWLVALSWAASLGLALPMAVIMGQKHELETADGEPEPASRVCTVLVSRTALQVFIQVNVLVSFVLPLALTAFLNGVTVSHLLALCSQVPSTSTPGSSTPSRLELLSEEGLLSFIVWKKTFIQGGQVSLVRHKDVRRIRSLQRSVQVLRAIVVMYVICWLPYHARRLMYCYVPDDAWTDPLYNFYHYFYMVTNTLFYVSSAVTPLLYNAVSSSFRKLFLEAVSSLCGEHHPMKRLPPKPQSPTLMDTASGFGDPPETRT
Series [3] deals with T1, 5-hydroxytryptamine receptor 3A (Homo sapiens, UniProt P46098).
T1 sequence (P46098 whole entry): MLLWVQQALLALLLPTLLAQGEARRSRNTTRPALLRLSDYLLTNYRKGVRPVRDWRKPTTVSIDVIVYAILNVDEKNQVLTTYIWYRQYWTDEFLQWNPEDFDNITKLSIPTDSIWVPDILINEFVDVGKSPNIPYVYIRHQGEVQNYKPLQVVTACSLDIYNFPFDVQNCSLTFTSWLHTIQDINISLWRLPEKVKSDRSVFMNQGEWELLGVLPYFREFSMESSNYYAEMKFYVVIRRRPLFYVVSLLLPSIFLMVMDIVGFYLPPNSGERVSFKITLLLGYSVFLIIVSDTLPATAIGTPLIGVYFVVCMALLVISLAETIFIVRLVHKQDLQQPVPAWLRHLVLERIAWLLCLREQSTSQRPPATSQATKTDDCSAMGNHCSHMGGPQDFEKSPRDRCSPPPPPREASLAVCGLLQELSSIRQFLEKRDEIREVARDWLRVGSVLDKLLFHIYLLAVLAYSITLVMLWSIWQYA
The series can be described thus: Binding affinity to 5-HT3 receptor (unknown origin).

Series [4] has as its system Plasma. Nature of the series: Plasma protein binding in human at 1 uM after 4 hrs by LC-MS/MS analysis. The class given is ADME, cell-free.
Series [5] concerns Plasma. The series can be described thus: Plasma protein binding in mouse at 10 uM after 4 hrs by LC-MS/MS analysis. The class given is ADME, cell-free.
Series [6] in a line: Effective permeability of the compound at 50 uM after 30 mins at donor pH 6.2 and acceptor pH 7.4 by PAMPA. The class given is ADME. To be noted: pH 6.2, 0.5 h.
The target of another series is Histamine H1 receptor (Homo sapiens, UniProt P35367). Nature of the series: Binding affinity to histamine H1 receptor (unknown origin).
Histamine H1 receptor, sequence (P35367 whole entry): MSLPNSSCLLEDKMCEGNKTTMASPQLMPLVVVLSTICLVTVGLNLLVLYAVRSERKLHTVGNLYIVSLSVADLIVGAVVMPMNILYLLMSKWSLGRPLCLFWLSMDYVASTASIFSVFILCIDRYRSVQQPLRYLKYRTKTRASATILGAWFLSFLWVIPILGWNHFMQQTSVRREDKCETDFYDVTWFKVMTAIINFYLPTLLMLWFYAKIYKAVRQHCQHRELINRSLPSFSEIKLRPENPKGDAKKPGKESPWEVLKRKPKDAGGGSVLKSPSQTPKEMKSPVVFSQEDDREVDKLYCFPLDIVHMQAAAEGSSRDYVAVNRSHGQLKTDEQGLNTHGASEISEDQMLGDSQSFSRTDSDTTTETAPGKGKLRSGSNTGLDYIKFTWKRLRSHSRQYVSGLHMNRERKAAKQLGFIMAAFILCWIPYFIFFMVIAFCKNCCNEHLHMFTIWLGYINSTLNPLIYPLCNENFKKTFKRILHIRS
A short description of series [7]: Effective permeability of the compound at 50 uM after 30 mins at donor pH 7.4 and acceptor pH 7.4 by PAMPA. To be noted: pH 7.4, 0.5 h. The format is ADME. In general terms: PAMPA measures passive passage across an artificial lipid membrane.
Series [8] deals with Neurotensin receptor type 1 (Homo sapiens, UniProt P30989). To be noted: U2OS.
Neurotensin receptor type 1, sequence (P30989 whole entry): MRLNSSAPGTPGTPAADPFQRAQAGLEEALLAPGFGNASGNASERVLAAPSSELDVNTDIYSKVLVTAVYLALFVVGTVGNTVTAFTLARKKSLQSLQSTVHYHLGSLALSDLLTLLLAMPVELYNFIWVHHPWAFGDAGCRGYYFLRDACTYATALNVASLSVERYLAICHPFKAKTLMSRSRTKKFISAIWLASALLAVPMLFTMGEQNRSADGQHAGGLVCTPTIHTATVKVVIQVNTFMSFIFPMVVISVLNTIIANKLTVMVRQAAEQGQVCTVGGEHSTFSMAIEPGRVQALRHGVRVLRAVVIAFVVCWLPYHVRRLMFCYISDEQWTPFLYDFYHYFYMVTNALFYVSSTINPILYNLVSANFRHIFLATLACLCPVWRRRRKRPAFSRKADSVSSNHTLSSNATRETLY
Description: Agonist activity at NTR1 (unknown origin) expressed in human U2OS cells coexpressing beta-arrestin by GFP reporter gene assay
In series [9] the target is T2, Alpha-1B adrenergic receptor (Homo sapiens) (UniProt P35368).
T2 sequence (whole entry): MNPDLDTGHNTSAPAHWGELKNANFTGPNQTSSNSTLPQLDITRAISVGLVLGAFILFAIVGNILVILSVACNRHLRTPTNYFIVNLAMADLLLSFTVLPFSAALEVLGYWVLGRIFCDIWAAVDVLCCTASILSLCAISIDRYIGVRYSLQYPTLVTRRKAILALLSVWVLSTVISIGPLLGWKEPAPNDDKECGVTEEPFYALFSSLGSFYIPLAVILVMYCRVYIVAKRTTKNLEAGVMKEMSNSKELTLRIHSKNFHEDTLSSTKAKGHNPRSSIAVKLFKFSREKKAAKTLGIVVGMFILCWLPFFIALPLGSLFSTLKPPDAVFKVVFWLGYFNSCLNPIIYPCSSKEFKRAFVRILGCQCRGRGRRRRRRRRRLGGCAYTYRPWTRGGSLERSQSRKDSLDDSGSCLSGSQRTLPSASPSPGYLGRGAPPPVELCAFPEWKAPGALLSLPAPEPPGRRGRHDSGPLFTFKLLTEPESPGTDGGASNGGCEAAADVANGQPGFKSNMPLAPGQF
The series can be described thus: Binding affinity to adrenergic alpha1B receptor (unknown origin) at 10 uM relative to control.

Series [10] relates to Mycobacterium tuberculosis. Nature of the series: Antibacterial activity against Mycobacterium tuberculosis H37Rv assessed as growth inhibition. The format is functional.
Series [11] is described as follows: Kinetic solubility of the compound in pION buffer at 250 uM after 18 hrs at pH 7.4. The format is physicochemical. Conditions: read-out: Kinetic_solubility.
Series [12] concerns Plasma. Nature of the series: Plasma protein binding in mouse at 1 uM after 4 hrs by LC-MS/MS analysis. The format is ADME, cell-free.
Series [13] deals with T3, Alpha-1A adrenergic receptor (Homo sapiens) (UniProt P35348).
T3 sequence (whole entry): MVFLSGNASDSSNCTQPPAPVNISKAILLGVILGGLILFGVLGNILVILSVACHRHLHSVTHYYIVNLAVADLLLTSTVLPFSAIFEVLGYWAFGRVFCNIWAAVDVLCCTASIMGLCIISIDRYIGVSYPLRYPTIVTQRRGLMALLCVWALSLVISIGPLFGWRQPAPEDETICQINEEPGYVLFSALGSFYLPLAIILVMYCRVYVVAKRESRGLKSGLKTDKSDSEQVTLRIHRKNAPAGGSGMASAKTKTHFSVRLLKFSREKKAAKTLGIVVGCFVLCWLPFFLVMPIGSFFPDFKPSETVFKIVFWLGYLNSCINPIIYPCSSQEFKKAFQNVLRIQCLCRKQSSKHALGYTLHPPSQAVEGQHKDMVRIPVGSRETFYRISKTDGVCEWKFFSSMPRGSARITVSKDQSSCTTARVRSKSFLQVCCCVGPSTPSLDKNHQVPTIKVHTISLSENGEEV
Nature of the series: Binding affinity to adrenergic alpha1A receptor (unknown origin) at 10 uM relative to control.

A further series concerns Mus musculus. The series can be described thus: Hepatic clearance in C57BL/6J mouse at 2 mg/kg, iv by LC-MS/MS analysis. Also noted: dose 2 mg/kg, route intravenous. The format is ADME, organism-based, Liver. Conditions: in vivo.
The next series concerns the target Mu-type opioid receptor (Homo sapiens, UniProt P35372). Nature of the series: Binding affinity to mu opioid receptor (unknown origin) at 10 uM relative to control.
Series [14] concerns Plasma. Nature of the series: Metabolic stability in human plasma assessed as compound remaining at 1 uM after 3 hrs by LC-MS/MS analysis. The class given is ADME, cell-free.
For the next series, the system named is Liver. Nature of the series: Metabolic stability in mouse liver microsomes assessed as compound remaining at 1 to 10 uM after 1 hr by LC-MS/MS analysis. The format is ADME, Microsome. In general terms: Liver microsomes are a subcellular fraction often used to study metabolism.
Series [15] is described as follows: Drug uptake in C57BL/6J mouse brain at 10 mg/kg, ip after 1 hr by LC-MS/MS analysis. Also noted: dose 10 mg/kg, route intraperitoneal. Conditions: read-out: Drug uptake. The class given is ADME, organism-based.

Structures are written as SMILES. Converted amounts (≈) assume the structure as drawn. A value given as a limit tells only on which side of the number the result lay.

Consider one compound from ChEMBL document CHEMBL2429761, “Discovery of ML314, a Brain Penetrant Non-Peptidic β-Arrestin Biased Agonist of the Neurotensin NTR1 Receptor” (ACS Med Chem Lett, 2013).

A word on the EC50: it is the midpoint of the concentration-response curve. What is called Ki is the dissociation constant of the complex between target and ligand, obtained from inhibition or displacement. A lower Ki goes with a stronger hold on the target.

Mu-type opioid receptor, sequence (P35372 whole entry): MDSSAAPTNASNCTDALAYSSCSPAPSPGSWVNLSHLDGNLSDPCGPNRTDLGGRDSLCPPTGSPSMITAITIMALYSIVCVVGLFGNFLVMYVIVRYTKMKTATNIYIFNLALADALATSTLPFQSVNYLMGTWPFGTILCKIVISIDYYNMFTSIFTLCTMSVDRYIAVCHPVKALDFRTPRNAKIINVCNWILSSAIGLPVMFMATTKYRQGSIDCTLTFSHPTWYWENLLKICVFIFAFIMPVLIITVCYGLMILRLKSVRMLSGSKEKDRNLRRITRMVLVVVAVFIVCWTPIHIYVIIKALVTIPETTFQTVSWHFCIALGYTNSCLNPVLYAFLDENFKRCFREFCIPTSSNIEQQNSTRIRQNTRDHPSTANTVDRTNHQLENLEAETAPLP

`COc1cc2nc(C3CC3)nc(N3CCN(c4ccccc4OC)CC3)c2cc1OC`: the Stability worked out at 99.6% in the series with Plasma [1], 100% in the series with Plasma [14] and 0.2% in the series on Liver. For the same compound, the EC50 in series [2] was above 80 µM. Besides, the Ki turned out to be 1000 nM in series [3] and 1420 nM at Histamine H1 receptor. Besides, the PPB with Plasma [4] came to 99.5%; in the series with Plasma [5] it was 98.9%; in the series on Plasma [12], 99.7%. Further, the Peff in series [6] was 2140 ×10⁻⁶ cm/s; in [7], 2090 ×10⁻⁶ cm/s. The same compound had an EC100 in [8] of 10 µM. Also, the results for the Activity (in series [9]; in series [13]; at Mu-type opioid receptor) were 63%, 63% and 86%, respectively. For the same compound, in series [10], the GI amounted to 3.9 µM. In series [11], the solubility kinetic at 18 h, 250 µM stood at 1.2 µM (≈ 0.505 µg/mL). The same compound yielded a CLH with Mus musculus of 81 mL/min/kg. The concentration at 1 h in [15] was 924 ng/mL.
